± gives the expanded uncertainty stated by the source.
Details: Liquid, Ebulliometric method (Recirculating still)

Row | SMILES | vapor or sublimation pressure (283.15 K) [kPa] | vapor or sublimation pressure (293.15 K) [kPa] | vapor or sublimation pressure (303.15 K) [kPa] | vapor or sublimation pressure (313.15 K) [kPa] | vapor or sublimation pressure (323.15 K) [kPa]
1 | CI [iodomethane] | 30 ± 10 | 47.5 ± 10 | 69.9 ± 10 | 95 ± 10 | 129 ± 10
2 | COC [dimethyl ether] | 372 ± 10 | 501 ± 10 | 687 ± 10 | 898 ± 10 | 1116.2 ± 10
